pIC50: −log10 of the molar value.
Target: T1, Membrane-associated tyrosine- and threonine-specific cdc2-inhibitory kinase (Homo sapiens, UniProt Q99640)
T1 sequence (Q99640 whole entry): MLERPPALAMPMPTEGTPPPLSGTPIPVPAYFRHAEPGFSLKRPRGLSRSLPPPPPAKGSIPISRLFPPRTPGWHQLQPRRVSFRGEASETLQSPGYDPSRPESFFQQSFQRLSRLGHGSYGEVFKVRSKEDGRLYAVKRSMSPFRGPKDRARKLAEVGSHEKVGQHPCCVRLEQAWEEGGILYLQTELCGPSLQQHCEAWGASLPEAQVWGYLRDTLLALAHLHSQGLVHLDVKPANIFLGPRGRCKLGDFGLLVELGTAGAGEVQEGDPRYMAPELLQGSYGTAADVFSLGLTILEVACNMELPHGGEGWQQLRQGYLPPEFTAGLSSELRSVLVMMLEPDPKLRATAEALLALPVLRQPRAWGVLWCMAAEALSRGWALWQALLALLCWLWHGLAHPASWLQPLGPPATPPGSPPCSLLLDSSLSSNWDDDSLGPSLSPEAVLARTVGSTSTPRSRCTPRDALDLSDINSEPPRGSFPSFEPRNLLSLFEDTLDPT
Assay: Test for Binding to ATP Binding Site of MYT1
Experimental: Table 3-1 to 3-5: The binding capacity of each compound to the ATP binding site of MYT1 Kinase protein was evaluated. 5× Kinase Buffer A (manufactured by Thermo Fisher Scientific Inc., PV3189) was diluted to 5 times with Milli-Q water, thereby preparing 1× Kinase Buffer. Using 1× Kinase Buffer, MYT1 protein (manufactured by Carna Biosciences, Inc.) was diluted to a concentration of 0.005 μM and Eu-Anti-GST Antibody was diluted to a concentration of 1 μM. […] To a 96 well-plate, 2.5 μL of a compound diluted with DMSO was added. […] The mixture was well mixed and then allowed to stand at room temperature for 30 minutes. Thereafter, fluorescence wavelengths of 665 nm and 615 nm generated by irradiation with excitation light of 340 nm were detected using Envision (manufactured by PerkinElmer). The proportion of Tracer bound to MYT1 protein was calculated for every condition by dividing the intensity at the fluorescence wavelength of 665 nm by the intensity at the fluorescence wavelength of 615 nm.

pIC50 | SMILES
8.38 | CC[C@@H](C)Oc1cc2c(c3cccnc13)NC(=O)C(N)C2c1ccc(F)c2[nH]ncc12 (stereo partly drawn) [US20260062412, Compound C36]
8.92 | N#C[C@H]1C[C@@H](Oc2cc3c(-c4cc(F)c(F)c5[nH]ncc45)c(N)c(=O)[nH]c3c3cccnc23)C1 [US20260062412, Compound C212]
9.08 | Nc1c(-c2cc(F)c(F)c3[nH]ncc23)c2cc(O[C@H]3C[C@@H](F)C3)c3ncccc3c2[nH]c1=O [US20260062412, Compound C213]

From BindingDB's records for patent US20260062412 (Chugai Seiyaku Kabushiki Kaisha, 2026)
